According to patent US7375111B2, “Compositions for affecting weight loss” (priority 2003, dated 2008):
Where “and” joins values, the source holds several entries; their conditions need not be identical. Equal values may be shown once.

Tests used:
C57/B16J mice = test: Dose-response experiments: cumulative food intake after intraperitoneal injection in fasted mice; details: food removed the day before
Protocol: Cumulative food intake±SEM was calculated and analyzed using Prizm. […] From the curve, the EC50 at each time point for each drug was determined.

[1] = in vivo; cited from earlier work
POMC neurons [2] = test: Electrophysiology: cell-attached recordings of action potential frequency of POMC-EGFP neurons in hypothalamic (ARC) slices; details: applied to the bath for 3 min
Protocol: Under ultraviolet (450-480 nm) excitation, POMC neurons were clearly distinguished from adjacent, non-fluorescent neurons visualized under infrared optics.
200 μm thick coronal slices were cut from the ARC of four-week old male POMC-EGFP mice. […] Recordings were made in Krebs at 35° C. Slices were visualized on an Axioskop FS2 plus (Zeiss) through standard infra red optics and using epifluorescence through a FITC (longpass) filter set. […] Cell-attached recordings were made from fluorescent neurons using an Axopatch 200B amplifier (Axon Instruments) and Clampex 8 (Axon Instruments). Action potentials frequencies were determined using an event detection program (Mini Analysis; Synaptosoft Inc., Decatur, Ga.). Drugs were applied to the bath for 3 min.
Data were analyzed by determining the average firing rate for 500 sec prior to drug addition, and analyzing treatments relative to this frequency (that is, firing rates were normalized to the pre-treatment frequency).

POMC neurons [3] = details: Heisler et al., Science 297(5581):609-11 (2002); cited from earlier work

Compound | Cumulative food intake expressed as a proportion of the food intake in saline treated animals, MEAN (C57/B16J mice; Hour 1 post-injection) | Cumulative food intake expressed as a proportion of the food intake in saline treated animals, MEAN (C57/B16J mice; Hour 2 post-injection) | Cumulative food intake expressed as a proportion of the food intake in saline treated animals, MEAN (C57/B16J mice; Hour 4 post-injection) | Cumulative food intake expressed as a proportion of the food intake in saline treated animals, MEAN (C57/B16J mice; Hour 8 post-injection) | Cumulative food intake expressed as a proportion of the food intake in saline treated animals, MEAN (C57/B16J mice; headed Hour 8 a second time) | Physiological half life [1] | Mean effect of the drug alone on firing rate, normalized to the pre-treatment frequency (POMC neurons [2]) | Effect of fenfluramine alone (POMC neurons [3])
CC(NC(C)(C)C)C(=O)c1cccc(Cl)c1 (centres unmarked) [Bupropion, bupropion] | 0.32 | 0.64 | 0.97 | 0.96 | 0.99 |  |  | 
O=C1CC[C@@]2(O)[C@H]3Cc4ccc(O)c5c4[C@@]2(CCN3CC2CC2)[C@H]1O5 [Naltrexone, naltrexone] | 0.41 and 0.30 | 0.77 and 0.56 | 0.99 and 0.83 | 1.1 and 0.98 | 0.98 and 1.01 |  |  | 
C=C1CC[C@@]2(O)[C@H]3Cc4ccc(O)c5c4[C@@]2(CCN3CC2CC2)[C@H]1O5 [Nalmefene, nalmefene] | 0.0083 | 0.11 | 0.57 | 0.81 | 0.98 |  |  | 
Cc1c(C(=O)NN2CCCCC2)nn(-c2ccc(Cl)cc2Cl)c1-c1ccc(I)cc1 [AM 251, N-(piperidin-1-yl)-1-(2,4-dichlorophenyl)-5-(4-iodophenyl)-4-methyl-1H-pyrazole-3-carboxamide] | 0.97 | 0.85 | 0.88 | 0.90 | 0.99 |  |  | 
CNCCC(Oc1ccc(C(F)(F)F)cc1)c1ccccc1 (centres unmarked) [Fluoxetine, fluoxetine] | 0.36 | 0.57 | 0.68 | 0.76 | 1.05 | about 9 hours | 3X (n = 1) | 
NCCc1ccc(O)c(O)c1 [Dopamine] |  |  |  |  |  |  | 11X (n = 9) | 
COCCCC/C(=N\OCCN)c1ccc(C(F)(F)F)cc1 [Fluvoxamine, fluvoxamine] | 0.77 | 0.85 | 0.95 | 0.91 | 0.92 |  |  | 
CCNC(C)Cc1cccc(C(F)(F)F)c1 (centres unmarked) [Fenfluramine, fenfluramine] |  |  |  |  |  |  | 2X increase (n = 6) | 200%
